Experimental data from patent publication US6372739B1, “Compounds and methods for modulation of estrogen receptors” (Signal Pharmaceuticals, Inc., priority 1998, dated 2002).
Counter-ions that a name gives are not always drawn. Like-named read-outs stand apart in the source and are kept apart here.

Columns and labels:
human recombinant ER-β = human recombinant ER-β (Homo sapiens, UniProt Q92731); assay: Solid phase ER binding assay (3H-estradiol competition), ER-β
GM-CSF = assay: Human bone cell co-culture system, GM-CSF production; format: cell-based; conditions: co-culture system of Example 8
Procedure: The co-culture system was established as follows. Human osteoblastic cells were plated in 96-well dishes at a density of 5×10^3 cells/well. U937 cells in RPMI medium (5×10^4 cells/well) were layered over the osteoblasts. The formation of osteoclast-like cells was induced with 100 nM PMA. To determine the effects of compounds or the neutralizing antibodies to IL-6 (Sigma) and GM-CSF (Pharmingen) on the formation of osteoclast-like cells, the compounds or the antibodies were added 30 minutes prior to the addition of PMA. The cultures were stopped after 96 hrs and processed for histochemical or immunohistochemical analyses.

IL-6 = assay: Human bone cell co-culture system, IL-6 production; format: cell-based
Procedure: The generation of osteoblastic cells from normal adult femoral travecular bone from patients without evidence of metabolic bone disease was carried out as previously described (Kung Sutherland et al., Osteoporosis International 5:334-343, 1995; Wong et al., J Bone Miner 5:803-813, 1990). Bone fragments were cleaned of adherent tissue and blood and cultured for 4 weeks in medium containing Ham's F12 supplemented with 28 mM HEPES, pH 7.4, 10% FCS, 1.1 mM CaCl2, 2 mM glutamine, and 1% antibiotic-antimycotic agent. Upon confluency, the cells were harvested and immortalized using a retroviral vector (pLXSN) containing the neomycin resistance gene and the human papillomaviral (HPV18) E6 and E7 concogenes (International Journal of Oncology 6:167-174, 1995). The immortalized osteoblastic cells were selected in medium containing G418 (600 μg/ml).
The human U937 moncytic cell line (cloned from the commercially available cells by serial dilution) was maintained in RPMI 1640 medium containing 10% FCS and 1% antibiotic-antimycotic agent.
The co-culture system was established as follows. Human osteoblastic cells were plated in 96-well dishes at a density of 5×10^3 cells/well. U937 cells in RPMI medium (5×10^4 cells/well) were layered over the osteoblasts. The formation of osteoclast-like cells was induced with 100 nM PMA. […]

[1] = 3-day immature rat uterine bioassay; conditions: s.c.
[2] = 28-day uterine bioassay in ovariectomized rats; conditions: rat, in vivo
Procedure: All three componds were administered daily by s.c. injection. Estrogen prevented the uterine weight loss caused by ovariectomy by increasing the uterine weight by 550%. […] Raloxifene.HCl caused about a 70% increase in uterine weight which has been previously reported (Grese et al., supra; Ashby et al., supra). […] Thus, this compound has significant potential for the prevention and/or treatment of cancer and osteoporosis, as well as cardiovascular diseases and neurodegenerative diseases such as Alzheimer's disease.

human recombinant ER-α = target: T1, human recombinant ER-α (Homo sapiens, UniProt P03372); assay: Solid phase ER binding assay (3H-estradiol competition), ER-α; conditions: HCl salt; similar to estradiol
T1 sequence (P03372 1-595): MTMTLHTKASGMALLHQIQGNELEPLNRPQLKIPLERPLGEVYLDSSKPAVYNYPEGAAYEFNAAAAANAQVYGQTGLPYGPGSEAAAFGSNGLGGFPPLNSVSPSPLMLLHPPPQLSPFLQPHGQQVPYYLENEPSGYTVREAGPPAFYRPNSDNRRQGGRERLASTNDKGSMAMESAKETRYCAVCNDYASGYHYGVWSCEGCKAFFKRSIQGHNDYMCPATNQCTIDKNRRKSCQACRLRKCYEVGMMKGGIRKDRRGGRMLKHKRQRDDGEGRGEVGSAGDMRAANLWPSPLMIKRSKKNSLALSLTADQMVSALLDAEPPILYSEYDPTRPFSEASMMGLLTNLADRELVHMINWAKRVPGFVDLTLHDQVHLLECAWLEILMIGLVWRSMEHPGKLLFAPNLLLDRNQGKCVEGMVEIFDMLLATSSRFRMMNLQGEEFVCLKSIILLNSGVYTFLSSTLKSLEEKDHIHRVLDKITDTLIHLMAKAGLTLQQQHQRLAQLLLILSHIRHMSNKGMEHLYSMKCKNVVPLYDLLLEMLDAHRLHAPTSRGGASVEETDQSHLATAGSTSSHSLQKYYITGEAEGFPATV

human recombinant ER-β, sequence (Q92731 whole entry): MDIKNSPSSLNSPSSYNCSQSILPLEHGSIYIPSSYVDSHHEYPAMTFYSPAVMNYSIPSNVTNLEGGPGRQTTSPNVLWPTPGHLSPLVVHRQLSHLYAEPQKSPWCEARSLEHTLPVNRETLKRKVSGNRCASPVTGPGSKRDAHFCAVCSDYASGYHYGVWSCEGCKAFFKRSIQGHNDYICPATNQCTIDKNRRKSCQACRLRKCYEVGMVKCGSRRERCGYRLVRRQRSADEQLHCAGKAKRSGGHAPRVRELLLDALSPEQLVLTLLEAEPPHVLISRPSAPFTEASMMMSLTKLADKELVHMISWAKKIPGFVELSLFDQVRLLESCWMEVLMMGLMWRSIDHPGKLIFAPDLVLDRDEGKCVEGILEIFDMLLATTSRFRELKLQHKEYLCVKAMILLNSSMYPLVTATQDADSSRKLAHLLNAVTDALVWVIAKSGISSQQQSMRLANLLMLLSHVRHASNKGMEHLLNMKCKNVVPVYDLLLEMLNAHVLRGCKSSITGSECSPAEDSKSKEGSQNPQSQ

CCN(CC)CCOc1ccc(-c2c(-c3ccccc3)c(=O)oc3ccccc23)cc1 [L-20, reference compound]
Ki (human recombinant ER-β; ER binding assay of Example 14, read-out: ER Binding Assay ER-β (Ki)): > 10000 nM

O=c1oc2cc(O)ccc2c(Cc2ccc(OCCN3CCCCC3)cc2)c1-c1ccccc1 (as salt: HCl) [Compound No. 1, 3-Phenyl-4-[4-(2-{piperidin-1-yl})ethoxy]-benzyl-7-hydroxycoumarin]
melting point: 160 to 161 °C

C[C@]12CC[C@@H]3c4ccc(O)cc4CC[C@H]3[C@@H]1CC[C@@H]2O [Estradiol, 17β-estradiol]
effect on production of GM-CSF (GM-CSF): reduced the production of GM-CSF | effect on production of IL-6 (IL-6; co-culture system of Example 8): suppress the production of IL-6 | increase in uterine weight [1]: 4.5 fold

O=c1oc2cc(O)ccc2c(Cc2ccc(OCCN3CCCCC3)cc2)c1-c1ccccc1 [Compound No. 1, 3-Phenyl-4-[4-(2-{piperidin-1-yl})ethoxy]-benzyl-7-hydroxycoumarin]
increase in uterine weight ([2]; female, sc, 28 day): ~40% | uterine liability [2]: does not exhibit significant uterine liability | binding affinity to ER-α (in words) (human recombinant ER-α): high affinity | IC50 (IL-6; U-937, human osteoblast/U937 co-culture, PMA induced, read-out: IC50 with respect to IL-6): 10 nM | binding affinity to ER-β (in words) (human recombinant ER-β; HCl salt, similar to estradiol): high affinity | Ki (human recombinant ER-β; competition with 30 nM 3H-estradiol, room temperature, 1 hour, average of at least 3 experiments, read-out: Solid Phase ER Binding Ki, ER-β): 7.3 nM | increase in uterine weight [1]: ~30% | shape of dose response, uterine weight [1]: bell-shaped dose response

O=C(c1ccc(OCCN2CCCCC2)cc1)c1c(-c2ccc(O)cc2)sc2cc(O)ccc12 [Raloxifene HCl]
shape of dose response, uterine weight [1]: bell-shaped dose response | increase in uterine weight ([1]; 1 mg/kg dose): up to 50%

COc1ccc2c(Cc3ccc(OCCN4CCCCC4)cc3)c(-c3ccccc3)c(=O)oc2c1 [Example 4, 3-Phenyl-4-[4-(2-{piperin-1-yl})ethoxy]-benzyl-7-methoxycoumarin]
melting point: 171 to 172 °C
